{"source": "patent US7989479B2", "about": "“Use of a p38 kinase inhibitor for treating psychiatric disorders” (GlaxoSmithKline LLC, priority 2006, dated 2011)", "key": {"[1]": {"tested_on": "LPS induced sickness behaviour", "assay": "LPS induced sickness behaviour in rats", "type": "in vivo", "conditions": "20 mg/kg p.o. 1 hour before LPS (125 ug/kg i.p.), behavioural assessments 2 hours thereafter", "text": "(§1) Administration of lipopolysaccharide (LPS) to rats is known to produce not only robust measures of sickness behaviour (reduced locomotor activity, reduced intake of both food and water, decreased body weight & decreased social interest) but also large elevations of peripheral pro-inflammatory cytokines and HPA-axis markers that can mimic some of the symptoms and underlying pathobiology observed in major depressive disorder (Dunn et al., (2005). Neurosci. Behav. Rev., 29, 891-909). Indeed the injection of cytokines into man produces such neuropsychiatric disturbances in non-major depressive disorder patients (Schiepers & Maes (2005). Prog. Neuro-psychopharmacol. & Biol. Psych., 29, 201-217).\n(§2) 6-(5-Cyclopropylcarbamoyl-3-fluoro-2-methyl-phenyl)-N-(2,2-dimethylpropyl)-nicotinamide was administered (p.o.) 1 hour before the administration of LPS (125 ug/kg i.p.) and then behavioural assessments were performed 2 hours thereafter. A satelite group of animals were treated in the same way and blood samples taken for biomarker analysis."}, "[2]": {"tested_on": "LPS induced elevations in TNF-a, IL-6, IL-10 and ACTH levels", "assay": "LPS induced elevations of cytokines and HPA-axis markers in blood (biomarker analysis, satellite group)", "type": "in vivo", "conditions": "rats; 20 mg/kg p.o. 1 hour before LPS (125 ug/kg i.p.); blood samples", "text": "as §1, §2"}}, "data": [{"smiles": "Cc1c(F)cc(C(=O)NC2CC2)cc1-c1ccc(C(=O)NCC(C)(C)C)cn1", "note": "[6-(5-Cyclopropylcarbamoyl-3-fluoro-2-methyl-phenyl)-N-(2,2-dimethylpropyl)-nicotinamide]", "values": [{"measurement": "reversal of LPS induced sickness behaviour", "setting": "[1]", "result": "significantly reversed"}, {"measurement": "reduction in LPS induced elevation in ACTH level", "setting": "[2]", "result": "> 80", "unit": "%"}, {"measurement": "reduction in LPS induced elevation in IL-6 level", "setting": "[2]", "result": "> 80", "unit": "%"}, {"measurement": "reduction in LPS induced elevation in IL-10 level", "setting": "[2]", "result": "> 80", "unit": "%"}, {"measurement": "reduction in LPS induced elevation in TNF-a level", "setting": "[2]", "result": "> 80", "unit": "%"}]}]}
